The record followed here is patent US5272136A, “5-0-α-D-Glucopyranosyl-L-ascorbic acid, and its preparation and uses” (priority 1991, dated 1993).

A short description of series [1]: Hydrolysis under a relatively-high acidic- and temperature-condition. The following applies: relative to the substances X and Y; pH 1.7, 100° C. The series is classed as physicochemical. The procedure: Thus, we removed 2-O-α-D-glucopyranosyl-L-ascorbic acid by using this hydrolysis.
The method was as follows: The second mother liquor was adjusted to give a concentration of 25%, adjusted to pH 1.7 by the addition of hydrochloric acid, and allowed to predominantly hydrolyze 2-O-α-D-glucopyranosyl-L-ascorbic acid at 100° C. Thereafter, the resultant solution was cooled and fed to a column packed with an anion exchange resin (OH^- -form) to adsorb the substances X and Y thereon, and the column was washed with water and fed with 0.5N hydrochloric acid to obtain a solution containing the substances X and Y.

A short description of a further series: physchem. The series is classed as physicochemical. The following applies: for Stability, residual percentage: 0 min, 70 uM; for remaining at 21 h, 70 µM / remaining at 0.5 h, 70 µM / remaining at 1 h, 70 µM / remaining at 0.25 h, 70 µM: aqueous solution. The procedure:
(h) Stability: The stability of the substance X was compared with L-ascorbic acid as a control. Each specimen was adjusted to give a concentration of 70 μM and to pH 7.0 or pH 2.0, and the resultant each solution was placed in a cell for an absorption spectrophotometer. The cell was set to the absorption spectrophotometer and kept at 20° C., followed by determining at a prescribed time interval an absorbance at 265 nm with the solution of pH 7.0 and an absorbance at 243 nm with the solution of pH 2.0, and comparing the residual percentage (%) of each specimen.

The test system of series [2] is enzyme of a small intestinal membrane. In words: Hydrolysis by enzyme of small intestinal membrane. The series is classed as in vitro ADME. The conditions noted are these: method of Okada et al.
A short description of the next series: Solubility in solvents. Type of series: physicochemical.
For the next series, the system named is 7 week-old dd mice. In words: Acute toxicity test, oral. Type of series: in vivo. The conditions noted are these: up to 5 g of the specimen, a higher dose was difficult. The text has this:
A high-purity 5-O-α-D-glucopyranosyl-L-ascorbic acid, prepared by the method in Experiment 1, was orally administered to 7 week-old dd mice for acute toxicity test. As a result, no mouse died when administered with up to 5 g of the specimen, and a higher dose was difficult.

Series [3] can be described thus: Coloring reaction / direct reducing activity. Type of series: physicochemical.

In the case of `O=C1O[C@H]([C@@H](O)CO)C(O)=C1O[C@H]1O[C@H](CO)[C@@H](O)[C@H](O)[C@H]1O` [2-O-α-D-glucopyranosyl-L-ascorbic acid], the “Hydrolysis under relatively-high acidic- and temperature-condition” value in series [1] was “more readily hydrolyzed than the substances X and Y”.
Take `O=C1O[C@H]([C@@H](O)CO)C(O)=C1O` [AsA, L-ascorbic acid]: in “physchem” (pH 2), the “Stability, residual percentage” value was 100% and the amount remaining at 21 h, 70 µM worked out at 10%. In “physchem” (pH 7), the “Stability, residual percentage” value was found to be 100%; the fraction remaining at 0.5 h, 70 µM stood at 20%; the fraction remaining at 1 h, 70 µM came to 8%; the fraction remaining at 21 h, 70 µM amounted to 2%.
On to `O=C1O[C@H]([C@H](CO)O[C@H]2O[C@H](CO)[C@@H](O)[C@H](O)[C@H]2O)C(O)=C1O` [substance X, 5-O-α-D-glucopyranosyl-L-ascorbic acid], for which the “Stability compared with L-ascorbic acid” value in “physchem” is given as “stabler than L-ascorbic acid”. Moreover, in “physchem” (pH 2), the “Stability, residual percentage” value stood at 100%; the share remaining at 0.25 h, 70 µM came out at 99%; the share remaining at 0.5 h, 70 µM amounted to 98%; the share remaining at 1 h, 70 µM stood at 90%. This compound displayed a fraction remaining at 21 h, 70 µM in “physchem” (pH 2) of 50%. In addition, in the series “physchem” (pH 7), the “Stability, residual percentage” value came to 100%; the share remaining at 0.25 h, 70 µM was 58%; the share remaining at 0.5 h, 70 µM is 35%; the amount remaining at 1 h, 70 µM was 16%. In “physchem” (pH 7), this compound displayed a fraction remaining at 21 h, 70 µM of 6%. Also, the “Hydrolysis by enzyme of small intestinal membrane” value in series [2] is given as “readily hydrolyzed”. The “Solubility in 0.1M acetic acid” value in the series “Solubility in solvents” (0.1M acetic acid) is “readily soluble”. Further, the “Solubility in 0.1N sodium hydroxide” value in the series “Solubility in solvents” (0.1N sodium hydroxide) was “readily soluble”. Also, the Solubility in benzene entry in the series “Solubility in solvents” (benzene) is given as “insoluble”. The Solubility in chloroform result in the series “Solubility in solvents” (chloroform) was “insoluble”. In addition, in the series “Solubility in solvents” (ethanol), the Solubility in ethanol entry is “slightly soluble”. Further, the Solubility in ether entry in “Solubility in solvents” (ether) is on record as “insoluble”. The Solubility in methanol entry in “Solubility in solvents” (methanol) was “slightly soluble”. The Solubility in water entry in “Solubility in solvents” (water) was “readily soluble”. The “Acute toxicity, mortality” value in the series on 7 week-old dd mice is listed as “no mouse died”. Further, the “Reducing activity (decoloring of 2,6-dichlorophenolindophenol)” value in series [3] was “exhibits a reducing activity, and decolors 2,6-dichlorophenolindophenol”.
Take `O=C1O[C@H]([C@@H](O)CO[C@H]2O[C@H](CO)[C@@H](O)[C@H](O)[C@H]2O)C(O)=C1O` [substance Y, 6-O-α-D-glucopyranosyl-L-ascorbic acid, reference compound]: the “Hydrolysis by enzyme of small intestinal membrane” value in series [2] was “not substantially hydrolyzed”.
